“And” between values parts separate entries of the source, which are not always exact repeats. Equal values may be shown once. Read-outs that look alike come from different tables or passages of the source.
Columns and labels:
[1] = tested on: Coptotermes formosanus; details: for Mean Rating (termite attack): mean of 4 specimens; for Mean Rating (termite attack) / Termite Attack Rating: 4 weeks sand culture; for Termite Attack Rating: single specimen
Excerpt: A laboratory test was undertaken to determine the toxic values of novel actives against termites. The active materials used were TBBA, TBBE [4,4′-ethylidenebis(2,6-dibromophenol)] [CAS RN=12639-25-3] (Sample Number 1392-82-03); TBBZ [4,4′-cyclohexylidene(2,6-dibromophenol)] [CAS RN=53350-96-2] (Sample Number 1392-72-03) and TBA, 2,2′,6-tribromo-4,4′-isopropylidenediphenol, CAS 6386-73-8 (Sample Number 1392-75-03).
The test was undertaken largely according to the strictures laid down in ASTM 3345-74 (the American standard laboratory test to assess the termite resistant properties of wood to wood destroying termites). The test method allows for the exposure of treated buried wood blocks to termites (Reticulitermes or Coptotermes spp.) over a period of 4 weeks. Efficacy of the product is determined by the extent of termite damage to the treated timber specimens through a scoring system. The test was slightly modified from the standard ASTM test by reducing the number of replicate wood specimens from 5 to 4.
(§1) Score 1: Attempted attack
The toxic values of the preservative product (in kg/m^3 of wood) fall between two values as follows:
1) The lowest concentration which protects the wood (i.e. the concentration at which none of the test specimens show a degree of attack greater than 1).
The termites employed were Coptotermes formosanus.
All wood bock specimens were of Southern Yellow Pine sapwood (Pinus spp.) with dimensions of 25.4×25.4×6.4 mm in accordance with ASTM D3345-74. All blocks were vacuum impregnated with the relevant solutions in accordance with ASTM D3345-74. Distribution of blocks in the test was as follows:
The test specimens were conditioned and subjected to a leaching schedule (after vacuum impregnation) as stipulated in ASTM D1413-76 (as recommended in ASTM D3345-74). All test specimens were then air dried for two weeks to constant weight.
The specimens were each positioned at the base of a 500 ml polyethylene culture jar (numbered according to each test specimen) and covered with 200 g of sand (pre-washed, sterilised and air conditioned in the laboratory) to which was added 25 g of de-ionised water. A further two containers containing watered sand but no timber were also prepared. All the jars were sealed (lids pre-pierced and covered with stainless steel mesh for aeration).
Two days after specimen placement, 200 termites were added to each culture jar (90% workers and 10% soldiers) and the jars re-sealed. The jars were incubated at a mean temperature and relative humidity of 27.5° C. and 75-90% for 4 weeks. The containers were provided with an artificial lighting regime of 10 hours light and 14 hours darkness.
After 1 week and 4 weeks each container was examined to determine termite mortality and normal tunneling behaviour patterns as follows:
Is there tunneling present: YES/NO
Are there any termites on the surface of the soil: YES/NO (if yes how many, i.e. 1-25% of pop, 26-50% of pop, 51-100% of pop.)
Are any dead termites visible: YES/NO (if yes how many, 1-33%, 34-66%, 67-100%)
After 4 weeks the test specimens were removed and cleaned of debris. Each block was examined and visually rated for termite damage using the scoring system detailed above.

[2] = tested on: Macrotermes natalensis; experiment: Field exposure of TBBA treated timber samples to an active termite population (based on EN 117); format: in vivo; details: ethanol carrier, 54 days field exposure; for Mean Termite Attack Score (0-4): SD in parenthesis, 3 replicates; as to highest termite attack score out of 3 replicates: key: Score 0: No attack; Score 1: Attempted attack; Score 2: Slight attack; Score 3: Average attack; Score 4: Strong attack
Excerpt: The termiticidal and/or termite repellency effect of TBBA was examined by field exposure of TBBA treated timber samples to an active population of termites (Macrotermes natalensis). Much of the test detail (timber specimen species, dimensions, preservative impregnation method, scoring system etc.) was based on the European laboratory standard EN 117. This standard is used to define the toxic values of wood preservative formulations against wood destroying termites of the species Reticulitermes santonensis.
The TBBA active was formulated as a solvent-borne product for the test. (ethanol carrier). The precise preservative solutions used were 0% (ethanol only), 1% TBBA, 3% TBBA, 5% TBBA, 7% TBBA and 10% TBBA (all w/w).
AU wood block specimens were of Scots pine sapwood (Pinus sylvestris) with dimensions of 50×25×15 mm. All the test blocks were vacuum impregnated with TBBA according to the method of EN 117. Distribution of the treated blocks in the test was as follows:
TS Specimens: to determine the efficacy of the TBBA active (at different concentrations) against termite attack. SCS Specimens: to confirm absence of a termiticidal effect by the TBBA carrier (ethanol). UCS Specimens: to establish the virulence of the field population of termites.
The termite field site was established in Ginginglovu (Zululand, South Africa). The soil type of the area was a Hutton Bush Veldt soil (sandy loam soil). The site was situated within 10 m of an active termite mound on a raised flat platform of soil established some 5 cm above ground level. The test specimens were randomly positioned on this platform and carefully covered with a waterproof flat plastic roof. This plastic roof was covered with soil to allow temperature and humidity conditions within the test zone to remain representative of the locale. The test specimens were left in-situ for a period of 54 days then scored for termite attack according the system defined in European standard EN 117 as follows:
as §1

[3] = 1 week, solution conc. 1%, ethanol carrier
[4] = 1 week, solution conc. 3%, ethanol carrier
[5] = 1 week, solution conc. 5%, ethanol carrier
[6] = 1 week, solution conc. 7%, ethanol carrier
[7] = 1 week, solution conc. 10%, ethanol carrier
[8] = 4 weeks, solution conc. 1%, ethanol carrier
[9] = 4 weeks, solution conc. 3%, ethanol carrier
[10] = 4 weeks, solution conc. 5%, ethanol carrier
[11] = 4 weeks, solution conc. 7%, ethanol carrier
[12] = 4 weeks, solution conc. 10%, ethanol carrier
[13] = solution conc. 1%, ethanol carrier
[14] = solution conc. 3%, ethanol carrier
[15] = solution conc. 5%, ethanol carrier
[16] = solution conc. 7%, ethanol carrier
[17] = solution conc. 10%, ethanol carrier

CC(C)(c1cc(Br)c(O)c(Br)c1)c1cc(Br)c(O)c(Br)c1 [TBBA, Tetrabromobisphenol A]
Surface Activity (termites on the surface of the soil) [1, 3]: No/No | Tunneling Activity [1, 3]: Yes/Yes | Visible Mortality [1, 3]: No/No | Surface Activity (termites on the surface of the soil) [1, 4]: No/No | Tunneling Activity [1, 4]: Yes/Yes | Visible Mortality [1, 4]: No and No/No | Surface Activity (termites on the surface of the soil) [1, 5]: 1-25 % (of pop.) | Tunneling Activity [1, 5]: Yes/Yes | Surface Activity (termites on the surface of the soil) [1, 6]: No/No | Tunneling Activity [1, 6]: Yes/Yes | Visible Mortality [1, 6]: No | Surface Activity (termites on the surface of the soil) [1, 7]: No | Tunneling Activity [1, 7]: Yes/Yes | Visible Mortality [1, 7]: No | Surface Activity (termites on the surface of the soil) [1, 8]: No/No | Tunneling Activity [1, 8]: Yes/Yes | Visible Mortality [1, 8]: No/No | Surface Activity (termites on the surface of the soil) [1, 9]: No/No | Tunneling Activity [1, 9]: Yes/Yes | Surface Activity (termites on the surface of the soil) [1, 10]: No | Tunneling Activity [1, 10]: Yes/Yes | Surface Activity (termites on the surface of the soil) [1, 11]: No/No | Tunneling Activity [1, 11]: Yes/Yes | Surface Activity (termites on the surface of the soil) [1, 12]: 1-25 % (of pop.) | Tunneling Activity [1, 12]: Yes/Yes | Visible Mortality [1, 12]: 67-100 % (of pop.) | reduction in termite attack ([1]; concentrated solutions, followed by leaching): a significant reduction in termite attack | repellent effect on termites (surface activity data) ([1]; ethanol carrier): a degree of termite repellency throughout the incubation period | toxic value, lower (concentration at which the wood is no longer sufficiently protected) ([1]; mean loading, solution concentration 5%, ethanol carrier, leached, 4 weeks): 32.52 kg/m^3 | toxic value, upper (lowest concentration which protects the wood) ([1]; mean loading, solution concentration 7%, ethanol carrier, leached, 4 weeks): 44.00 kg/m^3 | Mean Rating (termite attack) [1, 13]: 2.75 | Termite Attack Rating [1, 13]: 3 and 2 and 4 | Mean Rating (termite attack) [1, 14]: 2.25 | Termite Attack Rating [1, 14]: 2 and 3 | Mean Rating (termite attack) [1, 15]: 1.50 | Termite Attack Rating [1, 15]: 1 and 2 | Mean Rating (termite attack) [1, 16]: 1.00 | Termite Attack Rating [1, 16]: 1 | Mean Rating (termite attack) [1, 17]: 1.00 | Termite Attack Rating [1, 17]: 1 | Mean Termite Attack Score (0-4) ([2]; 1% TBBA (w/w)): 0.00 (0.00) | highest termite attack score out of 3 replicates ([2]; 1% TBBA): 0 | Mean Termite Attack Score (0-4) ([2]; 3% TBBA (w/w)): 0.00 (0.00) | highest termite attack score out of 3 replicates ([2]; 3% TBBA): 0 | Mean Termite Attack Score (0-4) ([2]; 5% TBBA (w/w)): 0.00 (0.00) | highest termite attack score out of 3 replicates ([2]; 5% TBBA): 0 | Mean Termite Attack Score (0-4) ([2]; 7% TBBA (w/w)): 0.33 (0.58) | highest termite attack score out of 3 replicates ([2]; 7% TBBA): 1 | Mean Termite Attack Score (0-4) ([2]; 10% TBBA (w/w)): 0.00 (0.00) | highest termite attack score out of 3 replicates ([2]; 10% TBBA): 0
